| Structure (SMILES) | melting point |
| --- | --- |
| CCOC(=O)[C@H](C)NC(=O)Cc1cc(F)cc(F)c1 [Example B64, N-[(3,5-Difluorophenyl)acetyl]alanine Ethyl Ester] | 93 to 95 °C |
| CC(C)COC(=O)[C@H](C)NC(=O)CC1CCCC1 [Example B71, N-(Cyclopentylacetyl)-L-alanine iso-Butyl Ester] | 62 to 64 °C |
| C[C@H](NC(=O)Cc1cc(F)cc(F)c1)C(=O)NC1C(=O)NCc2ccccc21 (stereo partly drawn) [Example 5-7, 4-(N′-(3,5-Difluorophenylacetyl)-L-alaninyl)amino-1,2,3,4-tetrahydroisoquinolin-3-one] | 243 to 244 °C |
| COC(=O)[C@@H](NC(=O)CC1CCCC1)c1ccccc1 [Example B77, N-(Cyclopentylacetyl)-L-phenylglycine Methyl Ester] | 83 to 86 °C |
| CC(C)COC(=O)[C@H](C)NC(=O)CC1CCCCC1 [Example B70, N-(Cyclohexylacetyl)-L-alanine iso-Butyl Ester] | 92 to 93 °C |
| CC1NC(=O)C(NC(=O)[C@H](C)NC(=O)Cc2cc(F)cc(F)c2)c2ccccc21 (stereo partly drawn) [Example 5-9, 4-(N′-(3,5-Difluorophenylacetyl)-L-alaninyl)amino-1-methyl-1,2,3,4-tetrahydroisoquinolin-3-one] | 205 to 206 °C |
| CC1CC(NC(=O)Cc2cc(F)cc(F)c2)C(=O)N(C)c2ccccc21 (centres unmarked) [Example 6-9, 3-(3,5-Difluorophenylacetyl)amino-1,5-dimethyl-1,3,4,5-tetrahydro-2H-1-benzazepin-2-one] | 185 to 187 °C |
| C[C@H](NC(=O)C(O)C1CCCC1)C(=O)NC1C(=O)N(CC(C)(C)C)c2ccccc2N(CC(C)(C)C)C1=O (stereo partly drawn) [Example 8-162, 3-[N′-(Cyclopentyl-α-hydroxyacetyl)-L-alaninyl]amino-2,4-dioxo-1,5-bis-(2,2-dimethylpropyl)-2,3,4,5-tetrahydro-1H-1,5-benzodiazepine] | 119 to 129 °C |
| CC(Nc1ccc(Cl)c(Cl)c1)C(=O)NC1CCCNC(=O)C1 (racemic) [Example 5-31, 3-(N′-(3,4-Dichlorophenyl)-D,L-alaninyl)amino-ε-caprolactam] | 199 °C |
| CCN1C(=O)[C@@H](NC(=O)[C@H](C)NC(=O)Cc2cc(F)cc(F)c2)COc2ccccc21 [Example 6-11, 3-(S)-(N′-(3,5-Difluorophenylacetyl)-L-alaninyl)amino-1-ethyl-5-oxa-1,3,4,5-tetrahydro-2H-1-benzazepin-2-one] | 188 to 191 °C |
| C[C@H](NC(=O)Cc1cc(F)cc(F)c1)C(=O)NC1C(=O)NCc2cc(Cc3ccccc3)ccc21 (stereo partly drawn) [Example 5-34, 4-(N′-(3,5-Difluorophenylacetyl)-L-alaninyl)amino-7-benzyl-1,2,3,4-tetrahydroisoquinolin-3-one] | 159 to 166 °C |
| CC(C)N1C(=O)C(NC(=O)[C@H](C)NC(=O)Cc2cc(F)cc(F)c2)C(=O)N(C(C)C)c2ccccc21 [Example 8-146, 3-[N′-(3,5-Difluorophenylacetyl)-L-alaninyl]amino-2,4-dioxo-1,5-bis-(1-methylethyl)-2,3,4,5-tetrahydro-1H-1,5-benzodiazepine] | 232 to 233 °C |
| C[C@H](NC(=O)Cc1cc(F)cc(F)c1)C(=O)NC1C(=O)NCc2cc(F)ccc21 (single isomer, unassigned) [Example 5-12, 4(N′-(3,5-Difluorophenylacetyl)-L-alaninyl)amino-7-fluoro-1,2,3,4tetrahydroisoquinolin-3-one] | 195 to 200 °C |
| C[C@H](NC(=O)Cc1cc(F)cc(F)c1)C(=O)NC1CCCCCNC(=O)C1 (stereo partly drawn) [Example 5-33, 3-(N′-(3,5-Difluorophenylacetyl)-L-alaninyl)amino-8-octanelactam] | > 220 °C |
| CC(C)CN1C(=O)C(NC(=O)[C@H](C)NC(=O)Cc2cc(F)cc(F)c2)C(=O)N(CC(C)C)c2ccccc21 [Example 8-152, 3-[N′-(3,5-Difluorophenylacetyl)-L-alaninyl]amino-2,4-dioxo-1,5-bis-(2-methylpropyl)-2,3,4,5-tetrahydro-1H-1,5-benzodiazepine] | 197 to 198 °C |
| C[C@H](NC(=O)Cc1ccccc1)C(=O)NC1CCCNC(=O)C1 (stereo partly drawn) [Example 5-18, 3-(N′-(Phenylacetyl)-L-alaninyl)amino-ε-caprolactam] | 200 to 202 °C |
| C[C@H](NC(=O)Cc1cc(F)cc(F)c1)C(=O)NC1C(=O)NC(c2cccnc2)c2ccccc21 (stereo partly drawn) [Example 5-38, 4-(N′-(3,5-Difluorophenylacetyl)-L-alaninyl)amino-1-(pyrid-3-yl)-1,2,3,4-tetrahydroisoquinolin-3-one] | 100 to 120 °C |
| CC(C)COC(=O)[C@H](C)NC(=O)CC1=CCCCC1 [Example B72, N-[(Cyclohex-1-enyl)acetyl]-L-alanine iso-Butyl Ester] | 49 to 51 °C |
| C[C@H](NC(=O)Cc1cc(F)cc(F)c1)C(=O)NC1C(=O)NC(c2ccncc2)c2ccccc21 (stereo partly drawn) [Example 5-39, 4-(N′-(3,5-Difluorophenylacetyl)-L-alaninyl)amino-1-(pyrid-4-yl)-1,2,3,4-tetrahydroisoquinolin-3-one] | 100 °C |

Other lines, results leading:

| melting point | Structure (SMILES) |
| --- | --- |
| 156 to 159 °C | C[C@H](NC(=O)Cc1cc(F)cc(F)c1)C(=O)N[C@@H]1CSc2ccccc2N(C)C1=O [Example 6-12, 3-(S)-(N′-(3,5-Difluorophenylacetyl)-L-alaninyl)amino-1-methyl-5-thia-1,3,4,5-tetrahydro-2H-1-benzazepin-2-one] |
| 200 to 205 °C | C[C@H](NC(=O)Cc1cc(F)cc(F)c1)C(=O)NC1C(=O)NC(c2ccccc2)c2ccccc21 (single isomer, unassigned) [Example 5-10, 4-(N′-(3,5-Difluorophenylacetyl)-L-alaninyl)amino-1-phenyl-1,2,3,4tetrahydroisoquinolin-3-one] |
| 155 to 158 °C | CCN1C(=O)C(NC(=O)[C@H](C)NC(=O)Cc2cc(F)cc(F)c2)N=C(c2ccccc2)c2ccccc21 (some centres unmarked) |
| 255 to 256 °C | C[C@H](NC(=O)C(O)c1cc(F)cc(F)c1)C(=O)NC1C(=O)N(C)c2ccccc2N(c2ccccc2)C1=O (single isomer, unassigned) |
| 228 to 229 °C | CC(C)[C@H](NC(=O)Cc1cc(F)cc(F)c1)C(=O)NC1N=C(c2ccccc2)c2ccccc2N(C)C1=O (some centres unmarked) |
| 144 to 145 °C | C[C@H](NC(=O)Cc1cc(F)cc(F)c1)C(=O)NC1C(=O)N(Cc2ccccc2)Cc2ccccc21 (stereo partly drawn) [Example 5-8, 4-(N′-(3,5-Difluorophenylacetyl)-L-alaninyl)amino-2-benzyl-1,2,3,4-tetrahydroisoquinolin-3-one] |
| 128 to 129 °C | C[C@H](NC(=O)C(=O)c1cc(F)cc(F)c1)C(=O)NC1N=C(c2ccccc2)c2ccccc2N(C)C1=O (some centres unmarked) |
| 115 to 119 °C | CC1CC(NC(=O)[C@H](C)NC(=O)Cc2cc(F)cc(F)c2)C(=O)N(C)c2ccccc21 (stereo partly drawn) [Example 6-8, 3-(N′-(3,5-Difluorophenylacetyl)-L-alaninyl)amino-1,5-dimethyl-1,3,4,5-tetrahydro-2H-1-benzazepin-2-one] |
| 240 to 241 °C | C[C@H](NC(=O)C(O)c1cc(F)cc(F)c1)C(=O)NC1N=C(c2ccccc2)c2ccccc2N(C)C1=O (single isomer, unassigned) |
| 75 to 76 °C | C[C@H](NC(=O)Cc1cc(F)cc(F)c1)C(=O)NC1C(=O)N(CCc2ccccc2)Cc2ccccc21 (stereo partly drawn) [Example 5-13, 4-(N′-(3,5-Difluorophenylacetyl)-L-alaninyl)amino-2-phenethyl-1,2,3,4-tetrahydroisoquinolin-3-one] |
| 110 to 114 °C | C[C@H](NC(=O)Cc1cc(F)cc(F)c1)C(=O)N[C@H]1COc2ccccc2N(C)C1=O [Example 6-10, 3-(S)-(N′-(3,5-Difluorophenylacetyl)-L-alaninyl)amino-1-methyl-5-oxa-1,3,4,5-tetrahydro-2H-1-benzazepin-2-one] |
| 205 to 206 °C | CCC(=S)N[C@@H](C)C(=O)NC1N=C(c2ccccc2)c2ccccc2N(C)C1=O (some centres unmarked) |
| 174 to 175 °C | C[C@H](NC(=O)Cc1cc(F)cc(F)c1)C(=O)NC1C(=O)N(C)Cc2ccccc21 (stereo partly drawn) [Example 5-14, 4-(N′-(3,5-Difluorophenylacetyl)-L-alaninyl)amino-2-methyl-1,2,3,4-tetrahydroisoquinolin-3-one] |
| 119 to 120 °C | C[C@H](NC(=O)C(F)c1cc(F)cc(F)c1)C(=O)NC1N=C(c2ccccc2)c2ccccc2N(C)C1=O (single isomer, unassigned) |
| > 240 °C (dec.) | C[C@H](NC(=O)Cc1cc(F)cc(F)c1)C(=O)NC1C(=O)NCc2cc(-c3ccccc3)ccc21 (stereo partly drawn) [Example 5-16, 4-(N′-(3,5-Difluorophenylacetyl)-L-alaninyl)amino-7-phenyl-1,2,3,4-tetrahydroisoquinolin-3-one] |
| 203 to 205 °C | C[C@H](NC(=O)Cc1cc(F)cc(F)c1)C(=O)NC1N=C(c2ccccc2)c2ccccc2N(CC2CC2)C1=O (some centres unmarked) |
| 196 to 199 °C | C[C@H](NC(=O)Cc1cc(F)cc(F)c1)C(=O)NC1Cc2ccccc2N(Cc2ccccc2)C1=O (stereo partly drawn) [Example 5-6, 1-Benzyl-3-(N′-(3,5-difluorophenylacetyl)-L-alaninyl)amino-1,2,3,4-tetrahydroquinolin-2-one] |
| 100 °C | C[C@H](NC(=O)Cc1cc(F)cc(F)c1)C(=O)NC1C(=O)NC(c2ccccn2)c2ccccc21 (stereo partly drawn) [Example 5-37, 4-(N′-(3,5-Difluorophenylacetyl)-L-alaninyl)amino-1-(pyrid-2-yl)-1,2,3,4-tetrahydroisoquinolin-3-one] |
| 106 to 107 °C | C[C@H](NC(=O)Cc1cc(F)cc(F)c1)C(=O)NC1C(=O)NC(Cc2ccccc2)c2ccccc21 (stereo partly drawn) [Example 5-35, 4-(N′-(3,5-Difluorophenylacetyl)-L-alaninyl)amino-1-benzyl-1,2,3,4-tetrahydroisoquinolin-3-one] |
| 236 to 239 °C | CN1C(=O)C(NC(=O)Cc2cc(F)cc(F)c2)N=C(c2ccccc2)c2ccccc21 (centres unmarked) |
| 221 to 222 °C | CN1C(=O)C(NC(=O)[C@@H](NC(=O)Cc2cc(F)cc(F)c2)C(C)(C)C)N=C(c2ccccc2)c2ccccc21 (some centres unmarked) |
| 206 to 207 °C | C[C@H](NC(=O)Cc1cc(F)cc(F)c1)C(=O)NC1C(=O)N(C)c2ccccc2N(C)C1=O [Example 8-150, 3-[N′-(3,5-Difluorophenylacetyl)-L-alaninyl]amino-2,4-dioxo-1,5-bis-methyl-2,3,4,5-tetrahydro-1H-1,5-benzodiazepine] |

Source: US6653303B1, “Cycloalkyl, lactam, lactone and related compounds, pharmaceutical compositions comprising same, and methods for inhibiting β-amyloid peptide release and/or its synthesis by use of such compounds” (Athena Neurosciences, Inc., priority 1996, dated 2003)
